Literature values in article PMC5036784 (Biophysics, 2011).
Read-outs that look alike come from different tables or passages of the source.

Details: for rate constant of membrane binding kFB / rate constant of membrane dissociation kBF: 19F NMR; for time span of the binding and dissociation: timescale

## O=c1[nH]cc(F)c(=O)[nH]1 [5FU, 5-fluoro-1H-pyrimidine-2,4-dione]
Ref [3]
  rate constant of membrane binding kFB: 0.2 s⁻¹
  rate constant of membrane dissociation kBF: 4.1 s⁻¹
  time span of the binding and dissociation: 10^−1–10^0 s

## Oc1ccc(C(c2ccc(O)cc2)(C(F)(F)F)C(F)(F)F)cc1 [FBPA, fluorinated bisphenol A]
303K, ref [4]
  rate constant of membrane binding kFB: 22 to 280 s⁻¹
  rate constant of membrane dissociation kBF: 68 to 107 s⁻¹
Ref [4]
  binding free energy ΔG: -4.78 kcal/mol
  time span of the binding and dissociation: 10^−3–10^−2 s
